Experimental data from the NIST ThermoML archive (doi:10.1016/j.jct.2012.08.023).

Experiment: mn = molality of the nth substance listed, in mol/kg
Details: 101.3 kPa, Liquid; for speed of sound: Single path-length method; for mass density: Vibrating tube method

CCCCn1cc[n+](C)c1.[Br-] [1-butyl-3-methylimidazolium bromide] + O
Details | mass density, 288.15 K [kg/m3] | mass density, 298.15 K [kg/m3] | mass density, 308.15 K [kg/m3] | speed of sound, 288.15 K [m/s] | speed of sound, 298.15 K [m/s] | speed of sound, 308.15 K [m/s]
m1 = 0.0915 | 996.409 | 996.531 | 991.528 | 1490.7 | 1516.7 | 1535.5
m1 = 0.0969 | 1001.56 | 999.293 | 996.365 | 1489.1 | 1517 | 1537.9
m1 = 0.1014 | 989.502 | 997.101 | 992.565 | 1490.9 | 1520.2 | 1540.2
m1 = 0.2656 | 1010.44 | 1007.45 | 1005.51 | 1511.6 | 1536.2 | 1554.5
m1 = 0.2803 | 1007.11 | 1005.82 | 1002.41 | 1512.3 | 1536.8 | 1555.3
m1 = 0.2869 | 1010.49 | 1005.51 | 1001.76 | 1512.3 | 1536.8 | 1555.3

COCCOCCO [2-(2-methoxyethoxy)ethanol] + O
Details | mass density, 288.15 K [kg/m3] | mass density, 298.15 K [kg/m3] | mass density, 308.15 K [kg/m3] | speed of sound, 288.15 K [m/s] | speed of sound, 298.15 K [m/s] | speed of sound, 308.15 K [m/s]
m1 = 0.1113 | 999.888 | 997.716 | 994.536 | 1477.1 | 1505.1 | 1526.8
m1 = 0.1346 | 1000.02 | 997.84 | 994.655 | 1480.4 | 1508.5 | 1529.1
m1 = 0.3285 | 1001.11 | 998.835 | 995.615 | 1494.2 | 1519.7 | 1538.8
m1 = 0.4005 | 1001.49 | 999.182 | 995.953 | 1498.2 | 1523.4 | 1541.4
m1 = 0.62 | 1002.6 | 1000.22 | 996.952 | 1516.3 | 1537.8 | 1553.6
m1 = 0.7114 | 1003.02 | 1000.62 | 997.341 | 1523.8 | 1544.5 | 1558.8
m1 = 0.9906 | 1004.26 | 1001.81 | 998.476 | 1539.6 | 1556.8 | 1569.1
m1 = 1.052 | 1004.52 | 1002.03 | 993.955 | 1548 | 1497.7 | 1574.7

COCCOCCOCCO [2-[2-(2-methoxyethoxy)ethoxy]ethanol] + O
Details | mass density, 288.15 K [kg/m3] | mass density, 298.15 K [kg/m3] | mass density, 308.15 K [kg/m3] | speed of sound, 288.15 K [m/s] | speed of sound, 298.15 K [m/s] | speed of sound, 308.15 K [m/s]
m1 = 0.0992 | 1000.76 | 998.595 | 995.371 | 1476.9 | 1505.2 | 1526.8
m1 = 0.2191 | 1002.54 | 1000.32 | 997.022 | 1490.1 | 1516.8 | 1535.9
m1 = 0.4289 | 1005.5 | 1003.2 | 999.755 | 1510.7 | 1533 | 1549.8
m1 = 0.5088 | 1006.57 | 1004.24 | 1000.75 | 1517.7 | 1539.4 | 1554.7
m1 = 0.5825 | 1007.53 | 1005.17 | 1001.64 | 1525 | 1544.9 | 1559.5
m1 = 0.7077 | 1009.12 | 1006.71 | 1003.1 | 1537.2 | 1555.8 | 1568.3
m1 = 0.7956 | 1010.2 | 1007.75 | 1004.09 | 1543.9 | 1560.4 | 1572.2
m1 = 0.9789 | 1012.35 | 1009.85 | 1006.07 | 1467.3 | 1570.5 | 1580

COCCO [2-methoxyethan-1-ol] + O
Details | mass density, 288.15 K [kg/m3] | mass density, 298.15 K [kg/m3] | mass density, 308.15 K [kg/m3] | speed of sound, 288.15 K [m/s] | speed of sound, 298.15 K [m/s] | speed of sound, 308.15 K [m/s]
m1 = 0.1766 | 999.359 | 997.221 | 994.075 | 1475.3 | 1504.9 | 1526.1
m1 = 0.3377 | 999.461 | 997.304 | 994.169 | 1487.3 | 1511.2 | 1531.6
m1 = 0.3987 | 999.495 | 997.331 | 994.202 | 1486.9 | 1513.8 | 1533.1
m1 = 0.5117 | 999.548 | 997.377 | 994.256 | 1492.9 | 1518 | 1537
m1 = 0.6355 | 999.593 | 997.421 | 994.305 | 1498.1 | 1522.9 | 1540.5
m1 = 0.7947 | 999.638 | 997.462 | 994.361 | 1506.8 | 1529.3 | 1546
m1 = 1.012 | 999.666 | 997.507 | 994.412 | 1518.1 | 1539.1 | 1553.7
